Each molecule was assayed against T1, SHP2 (Homo sapiens, UniProt Q06124) (assay: SHP2 allosteric inhibitor enzyme activity assay (DiFMUP fluorescence)). Conditions: class symbols.
T1 sequence (Q06124 1-593): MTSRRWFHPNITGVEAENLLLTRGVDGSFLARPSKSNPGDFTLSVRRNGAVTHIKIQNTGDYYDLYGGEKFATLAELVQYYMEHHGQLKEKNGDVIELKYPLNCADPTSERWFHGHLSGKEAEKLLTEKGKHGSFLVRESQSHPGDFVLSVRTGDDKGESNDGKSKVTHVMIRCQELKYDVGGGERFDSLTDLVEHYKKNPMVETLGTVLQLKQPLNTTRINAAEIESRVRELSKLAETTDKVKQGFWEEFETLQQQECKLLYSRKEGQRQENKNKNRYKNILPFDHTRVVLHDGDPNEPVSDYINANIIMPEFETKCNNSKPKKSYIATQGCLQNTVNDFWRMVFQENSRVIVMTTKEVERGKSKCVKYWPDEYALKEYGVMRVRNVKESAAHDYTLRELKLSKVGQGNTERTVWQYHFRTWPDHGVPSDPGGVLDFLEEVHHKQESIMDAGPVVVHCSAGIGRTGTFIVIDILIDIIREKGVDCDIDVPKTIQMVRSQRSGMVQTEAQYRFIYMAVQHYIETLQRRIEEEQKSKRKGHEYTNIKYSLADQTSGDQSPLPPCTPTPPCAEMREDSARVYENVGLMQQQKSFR
Format: biochemical
Outline: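 SHP2 activated by 0.5 μM IRS1_pY1172(dPEG8)pY1222 peptide, 0.2 ng enzyme per well, 1 h at room temperature with compound (1 μM top, 3-fold series), then DiFMUP substrate 1 h. Buffer: 60 mM HEPES, 75 mM NaCl, 75 mM KCl, 0.05% BRIJ-35, 1 mM EDTA, 5 mM DTT. Fluorescence ex 340/em 450 nm; IC50 by variable-slope fit.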

IC50, ≤ 0.02 µM:
CC1(C)C=C(c2n[nH]c3nc(N4CCC5(CC4)Cc4ccccc4[C@H]5N)[nH]c(=O)c23)c2cc(C#N)cnc2C1 [Example 163, (S)-5-(6-(1-amino-1,3-dihydrospiro[indene-2,4′-piperidin]-1′-yl)-4-oxo-4,5-dihydro-1H-pyrazolo[3,4-d]pyrimidin-3-yl)-7,7-dimethyl-7,8-dihydroquinoline-3-carbonitrile]
Cc1cc2c(nn1)CC(C)(C)C=C2c1n[nH]c2nc(N3CCC4(CC3)Cc3ccccc3[C@H]4N)[nH]c(=O)c12 [Example 164, (S)-6-(1-amino-1,3-dihydrospiro[indene-2,4′-piperidin]-1′-yl)-3-(3,7,7-trimethyl-7,8-dihydrocinnolin-5-yl)-1,5-dihydro-4H-pyrazolo[3,4-d]pyrimidin-4-one]
N[C@@H]1c2ccccc2CC12CCN(c1nc3[nH]nc(C4=CCOc5cc(Cl)ccc54)c3c(=O)[nH]1)CC2 [Example 167, (S)-6-(1-amino-1,3-dihydrospiro[indene-2,4′-piperidin]-1′-yl)-3-(7-chloro-2H-chromen-4-yl)-1,5-dihydro-4H-pyrazolo[3,4-d]pyrimidin-4-one]
N[C@@H]1c2ccccc2CC12CCN(c1nc3[nH]nc(C4=CCOc5cc(C(F)(F)F)ccc54)c3c(=O)[nH]1)CC2 [Example 168, (S)-6-(1-amino-1,3-dihydrospiro[indene-2,4′-piperidin]-1′-yl)-3-(7-(trifluoromethyl)-2H-chromen-4-yl)-1,5-dihydro-4H-pyrazolo[3,4-d]pyrimidin-4-one]
N[C@@H]1c2ccccc2CC12CCN(c1nc3[nH]nc(C4=CCC(F)(F)c5ncccc54)c3c(=O)[nH]1)CC2 [Example 169, (S)-6-(1-amino-1,3-dihydrospiro[indene-2,4′-piperidin]-1′-yl)-3-(8,8-difluoro-7,8-dihydroquinolin-5-yl)-1,5-dihydro-4H-pyrazolo[3,4-d]pyrimidin-4-one]
N[C@@H]1c2ccccc2CC12CCN(c1nc3[nH]nc(C4=CC5(COC5)c5ccccc54)c3c(=O)[nH]1)CC2 [Example 170, (S)-6-(1-amino-1,3-dihydrospiro[indene-2,4′-piperidin]-1′-yl)-3-(spiro[indene-1,3′-oxetan]-3-yl)-1,5-dihydro-4H-pyrazolo[3,4-d]pyrimidin-4-one]
CN1CC2(C=C(c3n[nH]c4nc(N5CCC6(CC5)Cc5ccccc5[C@H]6N)[nH]c(=O)c34)c3ccccc32)C1 [Example 171, (S)-6-(1-amino-1,3-dihydrospiro[indene-2,4′-piperidin]-1′-yl)-3-(1-methylspiro[azetidine-3,1′-inden]-3′-yl)-1,5-dihydro-4H-pyrazolo[3,4-d]pyrimidin-4-one]
N[C@@H]1c2ccccc2CC12CCN(c1nc3[nH]nc(C4=CCc5ccccc54)c3c(=O)[nH]1)CC2 [Example 172, (S)-6-(1-amino-1,3-dihydrospiro[indene-2,4′-piperidin]-1′-yl)-3-(1H-inden-3-yl)-1,5-dihydro-4H-pyrazolo[3,4-d]pyrimidin-4-one]
N[C@@H]1c2ccccc2CC12CCN(c1nc3[nH]nc(C4=CCOc5ccccc54)c3c(=O)[nH]1)CC2 [Example 173, (S)-6-(1-amino-1,3-dihydrospiro[indene-2,4′-piperidin]-1′-yl)-3-(2H-chromen-4-yl)-1,5-dihydro-4H-pyrazolo[3,4-d]pyrimidin-4-one]
N[C@@H]1c2ccccc2CC12CCN(c1nc3[nH]nc(-c4cc(=O)oc5ccccc45)c3c(=O)[nH]1)CC2 [Example 174, (S)-6-(1-amino-1,3-dihydrospiro[indene-2,4′-piperidin]-1′-yl)-3-(2-oxo-2H-chromen-4-yl)-1,5-dihydro-4H-pyrazolo[3,4-d]pyrimidin-4-one]
N[C@@H]1c2ccccc2CC12CCN(c1nc3[nH]nc(C4=CC(F)(F)c5ccccc54)c3c(=O)[nH]1)CC2 [Example 175, (S)-6-(1-amino-1,3-dihydrospiro[indene-2,4′-piperidin]-1′-yl)-3-(1,1-difluoro-1H-inden-3-yl)-1,5-dihydro-4H-pyrazolo[3,4-d]pyrimidin-4-one]
CC1(C)C=C(c2n[nH]c3nc(N4CCC5(CC4)Cc4ccccc4[C@H]5N)[nH]c(=O)c23)c2ccccc21 [Example 176, (S)-6-(1-amino-1,3-dihydrospiro[indene-2,4′-piperidin]-1′-yl)-3-(1,1-dimethyl-1H-inden-3-yl)-1,5-dihydro-4H-pyrazolo[3,4-d]pyrimidin-4-one]
N[C@@H]1c2ccccc2CC12CCN(c1nc3[nH]nc(C4=CCNc5ccccc54)c3c(=O)[nH]1)CC2 [Example 177, (S)-6-(1-amino-1,3-dihydrospiro[indene-2,4′-piperidin]-1′-yl)-3-(1,2-dihydroquinolin-4-yl)-1,5-dihydro-4H-pyrazolo[3,4-d]pyrimidin-4-one]
CC1(C)NC=C(c2n[nH]c3nc(N4CCC5(CC4)Cc4ccccc4[C@H]5N)[nH]c(=O)c23)c2ccccc21 [Example 179, (S)-6-(1-amino-1,3-dihydrospiro[indene-2,4′-piperidin]-1′-yl)-3-(1,1-dimethyl-1,2-dihydroisoquinolin-4-yl)-1,5-dihydro-4H-pyrazolo[3,4-d]pyrimidin-4-one]
N[C@@H]1c2ccccc2CC12CCN(c1nc3[nH]nc(C4=CCS(=O)(=O)c5ccccc54)c3c(=O)[nH]1)CC2 [Example 180, (S)-6-(1-amino-1,3-dihydrospiro[indene-2,4′-piperidin]-1′-yl)-3-(1,1-dioxido-2H-thiochromen-4-yl)-1,5-dihydro-4H-pyrazolo[3,4-d]pyrimidin-4-one]
N[C@@H]1c2ccccc2CC12CCN(c1nc3[nH]nc(C4=CNS(=O)(=O)c5ccccc54)c3c(=O)[nH]1)CC2 [Example 181, (S)-6-(1-amino-1,3-dihydrospiro[indene-2,4′-piperidin]-1′-yl)-3-(1,1-dioxido-2H-benzo[e][1,2]thiazin-4-yl)-1,5-dihydro-4H-pyrazolo[3,4-d]pyrimidin-4-one]
N[C@@H]1c2ccccc2CC12CCN(c1nc3[nH]nc(C4=CS(=O)(=O)Cc5ccccc54)c3c(=O)[nH]1)CC2 [Example 182, (S)-6-(1-amino-1,3-dihydrospiro[indene-2,4′-piperidin]-1′-yl)-3-(2,2-dioxido-1H-isothiochromen-4-yl)-1,5-dihydro-4H-pyrazolo[3,4-d]pyrimidin-4-one]
N[C@@H]1c2ccccc2CC12CCN(c1nc3[nH]nc(C4=CS(=O)(=O)Nc5ccccc54)c3c(=O)[nH]1)CC2 [Example 183, (S)-6-(1-amino-1,3-dihydrospiro[indene-2,4′-piperidin]-1′-yl)-3-(2,2-dioxido-1H-benzo[c][1,2]thiazin-4-yl)-1,5-dihydro-4H-pyrazolo[3,4-d]pyrimidin-4-one]
CN1c2ccccc2C(c2n[nH]c3nc(N4CCC5(CC4)Cc4ccccc4[C@H]5N)[nH]c(=O)c23)=CS1(=O)=O [Example 184, (S)-6-(1-amino-1,3-dihydrospiro[indene-2,4′-piperidin]-1′-yl)-3-(1-methyl-2,2-dioxido-1H-benzo[c][1,2]thiazin-4-yl)-1,5-dihydro-4H-pyrazolo[3,4-d]pyrimidin-4-one]
N[C@@H]1c2ccccc2CC12CCN(c1nc3[nH]nc(C4=C(F)CCc5ncccc54)c3c(=O)[nH]1)CC2 [Example 186, (S)-6-(1-amino-1,3-dihydrospiro[indene-2,4′-piperidin]-1′-yl)-3-(6-fluoro-7,8-dihydroquinolin-5-yl)-1,5-dihydro-4H-pyrazolo[3,4-d]pyrimidin-4-one]
N[C@@H]1c2ccccc2CC12CCN(c1nc3[nH]nc(C4=C(F)CCc5nc(C(F)(F)F)ccc54)c3c(=O)[nH]1)CC2 [Example 187, (S)-6-(1-amino-1,3-dihydrospiro[indene-2,4′-piperidin]-1′-yl)-3-(6-fluoro-2-(trifluoromethyl)-7,8-dihydroquinolin-5-yl)-1,5-dihydro-4H-pyrazolo[3,4-d]pyrimidin-4-one]
N[C@@H]1c2ccccc2CC12CCN(c1nc3[nH]nc(C4=C(F)CCc5nc(Cl)ccc54)c3c(=O)[nH]1)CC2 [Example 188, (S)-6-(1-amino-1,3-dihydrospiro[indene-2,4′-piperidin]-1′-yl)-3-(2-chloro-6-fluoro-7,8-dihydroquinolin-5-yl)-1,5-dihydro-4H-pyrazolo[3,4-d]pyrimidin-4-one]
CC1(C)Cc2nc(C(F)(F)F)ccc2C(c2n[nH]c3nc(N4CCC5(CC4)Cc4ccccc4[C@H]5N)[nH]c(=O)c23)=C1F [Example 189, (S)-6-(1-amino-1,3-dihydrospiro[indene-2,4′-piperidin]-1′-yl)-3-(6-fluoro-7,7-dimethyl-2-(trifluoromethyl)-7,8-dihydroquinolin-5-yl)-1,5-dihydro-4H-pyrazolo[3,4-d]pyrimidin-4-one]

Reference: patent US20230192705A1, “SHP2 INHIBITORS, COMPOSITIONS AND USES THEREOF” (Betta Pharmaceuticals Co., Ltd, priority 2020, published 2023)
